Data on two compounds can be found in patent US20060062863A1, “Compositions for anti-obesity, health-restorative and health-promotional benefits” (priority 2004, published 2006).

This test can be described thus: Food intake and body weight in haloperidol-treated albino rats. The following applies: for % change in body weight: day-21 vs initial value; for % change in food intake: during the 21-day period vs initial value. The class given is in vivo. The text has this: The results of administration of the Type-I saponins or the total extractives (comprising Type-I to -III compounds) of Chlorophytum arundinaceum on the attendant changes in the food intake and body weight of albino rats (270±20 grams) are given in Table-1. Administration of haloperidol causes obesity as it appreciably increases food intake and induces rapid weight gain. The feeder contained at least three times more pellets than are normally consumed. Food intake and the body weight were assessed for one week in all rats prior to initiation of administration of the test compound(s). Both Type-I saponins and the total extractives annulled the gluttonous craving for food due to haloperidol with appreciable decrease in weight gain, compared to the haloperidol group. […] Sibutramine is used as a recognized anorexic drug.

Where [1] appears, read: 10 mg/Kg p.o. once daily for 21 days + haloperidol 20 mg/Kg i.p.
Setting [2] is: haloperidol 20 mg/Kg i.p. once daily for 21 days, alone.

On to `CC(C)CC(N(C)C)C1(c2ccc(Cl)cc2)CCC1` (stereo not shown) [Sibutramine], for which, under setting [1], the “% change in body weight” value was “+0.28%” and the “% change in food intake” value is given as −0.37%.
For the compound `O=C(CCCN1CCC(O)(c2ccc(Cl)cc2)CC1)c1ccc(F)cc1` [Haloperidol], under setting [2], the “% change in body weight” value was “+35.13%” and the “% change in food intake” value is recorded as “+45.32%”.
